Test results taken from PubChem BioAssay AID1259407 (Chemical Carcinogenesis Research Information System (CCRIS), 2018).
Calls of active or inactive are those of the source. The rule behind the calls is not given here.

System: CCRIS mutagenicity, Ames/micronucleus/aberration tests
Experiment: CCRIS mutagenicity studies
[1] = Test System: AMES SALMONELLA TYPHIMURIUM, Strain/Indicator: TA100, Metabolic Activation: NONE, Method: PREINCUBATION

Measured: mutagenic call

CC(=O)c1cc(O)c(C(C)C)c2cc(C)c(-c3c(C)cc4c(C(C)C)c(O)c(O)c(C=O)c4c3O)c(O)c12
inactive: Test System: AMES SALMONELLA TYPHIMURIUM, Strain/Indicator: TA97A, Metabolic Activation: S-9, Method: STANDARD PLATE inactive; negative | Test System: AMES SALMONELLA TYPHIMURIUM, Strain/Indicator: TA98, Metabolic Activation: S-9, Method: STANDARD PLATE inactive; negative | Test System: AMES SALMONELLA TYPHIMURIUM, Strain/Indicator: TA100, Metabolic Activation: S-9, Method: STANDARD PLATE inactive; negative | Test System: AMES SALMONELLA TYPHIMURIUM, Strain/Indicator: TA102, Metabolic Activation: S-9, Method: STANDARD PLATE inactive; negative

[Cu+2].[O-]c1cccc2cccnc12.[O-]c1cccc2cccnc12
active: Test System: AMES SALMONELLA TYPHIMURIUM, Strain/Indicator: TA100, Metabolic Activation: RAT LIVER S-9, AROCLOR 1254, Method: STANDARD PLATE active; positive
inactive: Test System: AMES SALMONELLA TYPHIMURIUM, Strain/Indicator: TA98, Metabolic Activation: NONE, Method: STANDARD PLATE inactive; negative | Test System: AMES SALMONELLA TYPHIMURIUM, Strain/Indicator: TA98, Metabolic Activation: RAT LIVER S-9, AROCLOR 1254, Method: STANDARD PLATE inactive; negative | Test System: AMES SALMONELLA TYPHIMURIUM, Strain/Indicator: TA100, Metabolic Activation: NONE, Method: STANDARD PLATE inactive; negative

c1ccc2ncccc2c1
inactive: End Point: IN VITRO CHROMOSOMAL ABERRATIONS, Test System: CHL CELLS, Metabolic Activation: NONE inactive; negative | End Point: IN VIVO MICRONUCLEUS, Test System: PERIPHERAL BLOOD RETICULOCYTES, Species: RAT, Strain/Sex: FISHER 344 OR SD/MALE, Route: ORAL OR IP inactive; negative; significant increase at 150 mg/kg | Test System: AMES SALMONELLA TYPHIMURIUM, Strain/Indicator: TA98, Metabolic Activation: NONE, Method: PREINCUBATION inactive; negative | [1] inactive; negative | Test System: AMES SALMONELLA TYPHIMURIUM, Strain/Indicator: TA1535, Metabolic Activation: NONE, Method: PREINCUBATION inactive; negative | Test System: AMES SALMONELLA TYPHIMURIUM, Strain/Indicator: TA1535, Metabolic Activation: RAT, LIVER, S-9, AROCLOR 1254, Method: STANDARD PLATE inactive; negative | Test System: AMES SALMONELLA TYPHIMURIUM, Strain/Indicator: TA1537, Metabolic Activation: NONE, Method: PREINCUBATION inactive; negative | Test System: E. COLI, Strain/Indicator: WP2UVRA, Metabolic Activation: NONE, Method: PREINCUBATION inactive; negative | Test System: UDS RODENT HEPATOCYTES, Strain/Indicator: THY INCORP (NON-S-PHASE), Metabolic Activation: IN VIVO, Method: AUTORADIOGRAPHY inactive; negative
active: End Point: IN VITRO CHROMOSOMAL ABERRATIONS, Test System: CHL CELLS, Metabolic Activation: RAT, LIVER, S-9, SODIUM PHENOBARBITAL AND 5,6-BENZOFLAVONE active; positive (structural changes) | End Point: IN VIVO MICRONUCLEUS, Test System: HEPATOCYTES, Species: RAT, Strain/Sex: FISHER 344 OR SD/MALE, Route: ORAL OR IP active; positive | End Point: In vitro chromosomal aberrations, Test System: Chinese hamster lung fibroblast cells (CHL/IU), Metabolic Activation: Rat, liver, S-9 active; positive (information derived from figure) | End Point: In vitro micronucleus, Test System: Chinese hamster lung fibroblast cells (CHL/IU), Metabolic Activation: Rat, Liver, S-9 active; positive, cytotoxic at 0.1 mg/ml (information derived from a figure) | End Point: In vitro micronucleus, Test System: Chinese hamster lung fibroblast cells (CHL/IU), Metabolic Activation: Rat, liver, S-9 active; positive (information derived from a figure) | End Point: In vivo micronucleus, Test System: Micronucleated hepatocytes, Species: Rat, Strain/Sex: F344/Male, Route: Oral active; positive (p<0.05) | Test System: AMES SALMONELLA TYPHIMURIUM, Strain/Indicator: TA98, Metabolic Activation: RAT LIVER S-9, PHENOBARBITAL AND BETA-NAPHTHOFLAVONE, Method: PREINCUBATION active; positive | Test System: AMES SALMONELLA TYPHIMURIUM, Strain/Indicator: TA98, Metabolic Activation: RAT, LIVER, S-9, (5%, 10% OR 20%) AROCLOR 1254, Method: STANDARD PLATE active; positive | Test System: AMES SALMONELLA TYPHIMURIUM, Strain/Indicator: TA98, Metabolic Activation: RAT, LIVER, S-9, AROCLOR 1254, Method: STANDARD PLATE active; positive | Test System: AMES SALMONELLA TYPHIMURIUM, Strain/Indicator: TA98, Metabolic Activation: RAT, LIVER, S-9, KC500 OR PHENOBARBITAL, Method: LIQUID SUSPENSION active; positive | Test System: AMES SALMONELLA TYPHIMURIUM, Strain/Indicator: TA98, Metabolic Activation: RAT, LIVER, S-9, PCB, Method: PREINCUBATION active; positive | Test System: AMES SALMONELLA TYPHIMURIUM, Strain/Indicator: TA98, Metabolic Activation: RAT, LIVER, S-9, Method: PREINCUBATION active; positive | Test System: AMES SALMONELLA TYPHIMURIUM, Strain/Indicator: TA100, Metabolic Activation: RAT LIVER S-9, PHENOBARBITAL AND 5,6-BENZOFLAVONE, Method: PREINCUBATION active; positive | Test System: AMES SALMONELLA TYPHIMURIUM, Strain/Indicator: TA100, Metabolic Activation: RAT LIVER S-9, PHENOBARBITAL AND BETA-NAPHTHOFLAVONE, Method: PREINCUBATION active; positive | Test System: AMES SALMONELLA TYPHIMURIUM, Strain/Indicator: TA100, Metabolic Activation: RAT, LIVER, S-9 (5%, 10% OR 20%) AROCLOR 1254, Method: STANDARD PLATE active; positive | Test System: AMES SALMONELLA TYPHIMURIUM, Strain/Indicator: TA100, Metabolic Activation: RAT, LIVER, S-9, (5%, 10% OR 20%,) AROCLOR 1254, Method: STANDARD PLATE active; positive | Test System: AMES SALMONELLA TYPHIMURIUM, Strain/Indicator: TA100, Metabolic Activation: RAT, LIVER, S-9, AROCLOR 1254, Method: PREINCUBATION active; positive | Test System: AMES SALMONELLA TYPHIMURIUM, Strain/Indicator: TA100, Metabolic Activation: RAT, LIVER, S-9, KC500 OR PHENOBARBITAL, Method: LIQUID SUSPENSION active; positive | Test System: AMES SALMONELLA TYPHIMURIUM, Strain/Indicator: TA100, Metabolic Activation: RAT, LIVER, S-9, PCB, Method: STANDARD PLATE active; positive | Test System: AMES SALMONELLA TYPHIMURIUM, Strain/Indicator: TA100, Metabolic Activation: RAT, LIVER, S-9, PHENOBARBITAL AND 5,6-BENZOFLAVONE, Method: PREINCUBATION active; positive | Test System: AMES SALMONELLA TYPHIMURIUM, Strain/Indicator: TA100, Metabolic Activation: RAT, LIVER, S-9, PHENOBARBITAL AND 5,6-NAPHTHOFLAVONE, Method: PREINCUBATION active; positive | Test System: AMES SALMONELLA TYPHIMURIUM, Strain/Indicator: TA100, Metabolic Activation: RAT, LIVER, S-9, Method: PREINCUBATION active; positive | Test System: AMES SALMONELLA TYPHIMURIUM, Strain/Indicator: TA100, Metabolic Activation: S-9, Method: PREINCUBATION active; positive | Test System: E.COLI, Strain/Indicator: WP2UVRA, Metabolic Activation: RAT LIVER S-9, PHENOBARBITAL AND BETA-NAPHTHOFLAVONE, Method: PREINCUBATION active; positive | Test System: UDS RODENT HEPATOCYTES, Strain/Indicator: THY INCORP (NON-S-PHASE), Metabolic Activation: NONE, Method: AUTORADIOGRAPHY active; positive

C=C(C=O)CCCC
active: [1] active; positive | Test System: AMES SALMONELLA TYPHIMURIUM, Strain/Indicator: TA100, Metabolic Activation: RAT LIVER S-9, AROCLOR 1254, Method: PREINCUBATION active; positive
